Reference: article PMC7129073 (Clinical Microbiology and Infection, 2015)
Values after ≈ are worked out from the molar mass of the structure shown.

Key:
E. coli = assay: Sensitivity of CAP pathogens with/without antibiotic pretreatment; assay type: cell-based, Escherichia coli
Other Haemophilus sp. = assay: as above; assay type: cell-based; conditions: after pretreatment, Abs. 11
P. jirovecii = P. jirovecii colonisation; assay type: in vivo, human; conditions: none developed PcP in one year
PRSP = assay: Broth microdilution; assay type: cell-based, Streptococcus pneumoniae; conditions: for %Sus: NCCLS breakpoints (Amox/Clav 2/1 mcg/mL); for MIC90: Streptococcus pneumoniae, PRSP
S. -pneumoniae = assay: Sensitivity of CAP pathogens with/without antibiotic pretreatment; assay type: cell-based, Streptococcus pneumoniae
ERSP = assay: Broth microdilution; assay type: cell-based, Streptococcus pneumoniae; conditions: for %Sus: NCCLS breakpoints (Amox/Clav 2/1 mcg/mL); for MIC90: Streptococcus pneumoniae
S. pneumoniae [1] = assay: Broth microdilution; assay type: cell-based, Streptococcus pneumoniae; conditions: for %Sus: NCCLS breakpoints (Amox/Clav 2/1 mcg/mL); for MIC90: Streptococcus pneumoniae
[2] = test system: Moraxella catarrhalis (MC); assay: MIC; assay type: cell-based; conditions: 2497 isolates
Staph. coaq (−) = assay: Sensitivity of CAP pathogens with/without antibiotic pretreatment; assay type: cell-based, coagulase-negative Staphylococcus
N.gonorrhoeae = assay: microbe, parasite or virus in culture; assay type: cell-based; conditions: Neisseria gonorrhoeae
S. pyogenes = assay: Sensitivity of CAP pathogens with/without antibiotic pretreatment; assay type: cell-based, Streptococcus pyogenes; conditions: Abs. 4
H.influenzae = assay: Broth microdilution; assay type: cell-based, Haemophilus influenzae; conditions: for MIC90: Haemophilus influenzae
Other Enterobacteriacae = assay: Sensitivity of CAP pathogens with/without antibiotic pretreatment; assay type: cell-based, Enterobacteriaceae
Kl. pneumoniae = assay: as above; assay type: cell-based, Klebsiella pneumoniae
S. aureus = assay: as above; assay type: cell-based, Staphylococcus aureus; conditions: after pretreatment, Abs. 4
[3] = test system: Streptococcus pyogenes (SPY); assay: MIC; assay type: cell-based; conditions: 2522 isolates
H. influenzae = assay: Sensitivity of CAP pathogens with/without antibiotic pretreatment; assay type: cell-based, Haemophilus influenzae
[4] = test system: Total pathogens in community acquired pneumonia; assay: as above; assay type: cell-based; conditions: after pretreatment, Abs. 48
Enterococcus sp = assay: as above; assay type: cell-based
[5] = test system: Other non-fermenting bacteria; assay: as above; assay type: cell-based
S. pneumoniae [6] = assay: E-test MIC, children with URTI, Brazil; assay type: cell-based, Streptococcus pneumoniae; conditions: for intermediate (I) / resistant (R) / susceptible (S): 137 isolates; for MIC90: Streptococcus pneumoniae
[7] = test system: pathogens in community acquired pneumonia of different severity; assay: Sensitivity of CAP pathogens by Fine severity group; assay type: cell-based
P. aeruginosa = assay: Sensitivity of CAP pathogens with/without antibiotic pretreatment; assay type: cell-based, Pseudomonas aeruginosa; conditions: Abs. 3
[8] = test system: viridans group streptococci (VgS) and Streptococcus bovis; assay: Broth microdilution and disk diffusion; assay type: cell-based; conditions: nine species
S. pneumoniae [9] = assay type: cell-based, Streptococcus pneumoniae
S. pneumoniae [10] = assay: MIC of invasive strains, Saint George Hospital 2001–2004; assay type: cell-based, Streptococcus pneumoniae
[11] = test system: foreign body infection Staphylococcus epidermidis strains; assay: NCCLS disk diffusion; assay type: cell-based; conditions: 86 strains
Streptococcus pneumoniae [12] = assay: BSAC agar dilution, lower respiratory isolates UK and Ireland; assay type: cell-based
S. pneumoniae (SPN) = assay: SENTRY Brazil, NCCLS broth microdilution; assay type: cell-based, Streptococcus pneumoniae
F. necrophorum = assay: E-test, 13 clinical isolates; assay type: cell-based, Fusobacterium necrophorum
S. pneumoniae [13] = assay: Broth microdilution; assay type: cell-based, Streptococcus pneumoniae; conditions: 275 isolates
S. pneumoniae [14] = assay: Susceptibility of bacteraemia isolates of children, Taiwan; assay type: cell-based, Streptococcus pneumoniae; conditions: 79 isolates
S. pneumoniae [15] = assay: PROTEKT Italy, NCCLS microdilution; assay type: cell-based, Streptococcus pneumoniae
[16] = test system: ‘wild type’ Staphylococcus epidermidis skin isolates; assay: NCCLS disk diffusion; assay type: cell-based; conditions: 52 isolates
S. pneumoniae (Sp) = assay: Broth microdilution, point prevalence study Spain; assay type: cell-based, Streptococcus pneumoniae; conditions: 360 isolates, February 2004; penicillin I+R
[17] = test system: viridans group streptococci (VGS); assay: MIC; assay type: cell-based
S.pneumoniae = assay: Italian survey of severe infections 2003, MIC; assay type: cell-based, Streptococcus pneumoniae
[18] = test system: Haemophilus influenzae (HI); assay: MIC; assay type: cell-based; conditions: 7489 isolates
[19] = test system: Streptococcus pneumoniae (SPN); assay: MIC; assay type: cell-based; conditions: 8378 isolates
Streptococcus pneumoniae [20] = assay: Susceptibility testing; assay type: cell-based; conditions: 99 isolates tested

CC[C@H]1OC(=O)[C@H](C)[C@@H](O[C@H]2C[C@@](C)(OC)[C@@H](O)[C@H](C)O2)[C@H](C)[C@@H](O[C@@H]2O[C@H](C)C[C@H](N(C)C)[C@H]2O)[C@](C)(O)C[C@@H](C)CN(C)[C@H](C)[C@@H](O)[C@]1(C)O [azithromycin]
% of sensitive strains (E. coli; after pretreatment, Abs. 1): 0.0%
% of sensitive strains (E. coli; without pretreatment, Abs. 5): 0,0%
% of sensitive strains (Other Haemophilus sp.): 100.0%
patients receiving prophylaxis who were colonized (P. jirovecii): 17.2%
%Sus (PRSP): 23.0%
MIC90 (PRSP): > 32 µg/mL
% of sensitive strains (S. -pneumoniae; after antibiotic pretreatment, Abs. 3): 100.0%
% of sensitive strains (S. -pneumoniae; without antibiotic pretreatment, Abs. 13): 100,0%
%Sus (ERSP): 0.3%
MIC90 (ERSP): > 32 µg/mL
%Sus (S. pneumoniae [1]): 71.4%
MIC90 (S. pneumoniae [1]): > 32 µg/mL
MIC90 [2]: 0.25 ig/ml
% of sensitive strains (Staph. coaq (−); after pretreatment, Abs. 2): 50.0%
% of sensitive strains (Staph. coaq (−); without pretreatment, Abs. 4): 75.0%
MIC (N.gonorrhoeae; strain 76mu6): 0.25 µg/mL (≈ 0.334 µM)
MIC (N.gonorrhoeae; strain 76mu10): 0.25 µg/mL (≈ 0.334 µM)
% of sensitive strains (S. pyogenes; after pretreatment): 100.0%
% of sensitive strains (S. pyogenes; without pretreatment): 100,0%
MIC90 (H.influenzae): 2 µg/mL (≈ 2.67 µM)
%Sus (H.influenzae; NCCLS): 99.1%
% of sensitive strains (Other Enterobacteriacae; after pretreatment, Abs. 5): 0.0%
% of sensitive strains (Other Enterobacteriacae; without pretreatment, Abs. 2): 0,0%
% of sensitive strains (Kl. pneumoniae; after pretreatment, Abs. 5): 0.0%
% of sensitive strains (Kl. pneumoniae; without pretreatment, Abs. 4): 0,0%
% of sensitive strains (S. aureus): 75.0%
MIC90 [3]: 0.5 ig/ml
% of sensitive strains (H. influenzae; after pretreatment, Abs. 10): 100.0%
% of sensitive strains (H. influenzae; without pretreatment, Abs. 26): 100.0%
% of sensitive strains [4]: 66.7%
% of sensitive strains (Enterococcus sp; after pretreatment, Abs. 0): 0.0%
% of sensitive strains (Enterococcus sp; without pretreatment, Abs. 1): 0,0%
% of sensitive strains ([5]; after pretreatment, Abs. 0): 0.0%
% of sensitive strains ([5]; without pretreatment, Abs. 1): 0,0%
intermediate (I) (S. pneumoniae [6]): 1.5%
resistant (R) (S. pneumoniae [6]): 8%
susceptible (S) (S. pneumoniae [6]): 90.5%
MIC90 (S. pneumoniae [6]): 4 µg/mL (≈ 5.34 µM)
sensitivity, total strains ([7]; higher severity group (Fine scores >70)): 60.0%
sensitivity, total strains ([7]; lower severity group (Fine scores <70)): 73.6%
% of sensitive strains (P. aeruginosa; after pretreatment): 0.0%
% of sensitive strains (P. aeruginosa; without pretreatment): 0,0%

CC1(C)S[C@@H]2[C@H](NC(=O)Cc3ccccc3)C(=O)N2[C@H]1C(=O)O [penicillin]
% S, range between species [8]: 65.5–98.1%
intermediate susceptible (S. pneumoniae [9]): 30%
% S (S. pneumoniae [10]): 46%
%R (S. pneumoniae [10]): 54%
% resistant [11]: More than 30%
resistance (PEN-NS >0.06, TET-R >1, ERY-R >0.5, CIP-R >2 mg/L) (Streptococcus pneumoniae [12]; Ireland 1999–2000, N 66): 40.9%
resistance (same cut-offs) (Streptococcus pneumoniae [12]; Ireland 2000–2001, N 59): 42.4%
resistance (same cut-offs) (Streptococcus pneumoniae [12]; Ireland 2001–2002, N 68): 36.8%
resistance (same cut-offs) (Streptococcus pneumoniae [12]; Ireland 2002–2003, N 89): 24.7%
resistance (same cut-offs) (Streptococcus pneumoniae [12]; Ireland 2003–2004, N 76): 14.5%
resistance (same cut-offs) (Streptococcus pneumoniae [12]; UK 1999–2000, N 595): 7.4%
resistance (same cut-offs) (Streptococcus pneumoniae [12]; UK 2000–2001, N 608): 7.1%
resistance (same cut-offs) (Streptococcus pneumoniae [12]; UK 2001–2002, N 631): 4.6%
resistance (same cut-offs) (Streptococcus pneumoniae [12]; UK 2002–2003, N 683): 6.4%
resistance (same cut-offs) (Streptococcus pneumoniae [12]; UK 2003–2004, N 709): 5.9%
%Sus (PRSP): 0.0%
MIC90 (PRSP): 4 µg/mL (≈ 12 µM)
% R (> 2 mg/L) to PEN (S. pneumoniae (SPN); 1998): 3%
% S (S. pneumoniae (SPN); 1998): 84%
% R (> 2 mg/L) to PEN (S. pneumoniae (SPN); 1999): 6%
% S (S. pneumoniae (SPN); 1999): 83%
% R (> 2 mg/L) to PEN (S. pneumoniae (SPN); 2000): 5%
% S (S. pneumoniae (SPN); 2000): 75%
% R (> 2 mg/L) to PEN (S. pneumoniae (SPN); 2001): 8%
% S (S. pneumoniae (SPN); 2001): 82%
% R (> 2 mg/L) to PEN (S. pneumoniae (SPN); 2002): 8%
% S (S. pneumoniae (SPN); 2002): 78%
% R (> 2 mg/L) to PEN (S. pneumoniae (SPN); 2003): 10%
% S (S. pneumoniae (SPN); 2003): 72%
MIC range (F. necrophorum): 0.004 to 256 µg/mL
MIC50 (F. necrophorum; Fusobacterium necrophorum): 0.016 µg/mL (≈ 0.0478 µM)
MIC90 (F. necrophorum; Fusobacterium necrophorum): > 32 µg/mL
%Sus (ERSP): 18.6%
MIC90 (ERSP): 4 µg/mL (≈ 12 µM)
Susceptibility (S. pneumoniae [13]): 83.6%
%Sus (S. pneumoniae [1]): 60.6%
MIC90 (S. pneumoniae [1]): 2 µg/mL (≈ 5.98 µM)
MIC90 [2]: 8 ig/ml
nonsusceptible isolates (MIC > 0.1 μg/mL) (S. pneumoniae [14]): 82%
MIC (N.gonorrhoeae; strain 76mu6): 16 µg/mL (≈ 47.8 µM)
MIC (N.gonorrhoeae; strain 76mu10): 16 µg/mL (≈ 47.8 µM)
MIC (N.gonorrhoeae; strain 92mu6): 0.5 µg/mL (≈ 1.5 µM)
MIC (N.gonorrhoeae; strain 92mu13): 0.5 µg/mL (≈ 1.5 µM)
total resistance (S. pneumoniae [15]; year 1: 2002): 23.7%
total resistance (S. pneumoniae [15]; year 2: 2003): 23.4%
% resistant [16]: 46.2%
MIC90 (H.influenzae): > 16 µg/mL
MIC90 [3]: 0.03 ig/ml
resistance (S. pneumoniae (Sp)): 42%
MIC50 [17]: 0.06 µg/mL (≈ 0.179 µM)
MIC90 [17]: 0.5 µg/mL (≈ 1.5 µM)
MIC range of isolates with reduced susceptibility [17]: 0.25 to 4 µg/mL
isolates with reduced susceptibility ([17]; 107 strains): 18.7%
resistance (S.pneumoniae): 20.0%
MIC90 [18]: 8 ig/ml
MIC90 [19]: 1 ig/ml
intermediate (I) (S. pneumoniae [6]): 23.4%
resistant (R) (S. pneumoniae [6]): 10.2%
susceptible (S) (S. pneumoniae [6]): 66.4%
MIC90 (S. pneumoniae [6]): 1.5 µg/mL (≈ 4.49 µM)
resistant isolates (Streptococcus pneumoniae [20]): 14.1%
